Measured values from publication PMC8185074, “Anchor extension: a structure-guided approach to design cyclic peptides targeting enzyme active sites” (Nature Communications, 2021).
Where two headings read alike, the source gives them in different places. Peptide text beside a SMILES is read from it.

Molecular target: T1, HDAC2 (Homo sapiens, UniProt Q92769)
T1 construct: purchased Reaction Biology Corporation (assay run by the CRO)
Test: Initial HDAC2 IC50 estimate (BPS Biosciences HDAC fluorogenic assay kit)
Assay type: biochemical
Conditions: Supplementary Dataset 2
Experimental: Initial IC50 values were estimated using HDAC fluorogenic assay kits from BPS Biosciences (HDAC2, HDAC4, and HDAC6) following the protocol described in the kit. All the measures were performed in duplicates or triplicates. These measurements were done either on full range of concentrations (1:10 dilution from 1 µM to 100 pM) or on two concentrations only (20 nM and 200 nM) as an estimate of the range. […] Source Data are provided as a Source Data file.

[1] = HDAC2 activity (initial activity)

T1 sequence (Q92769 whole entry): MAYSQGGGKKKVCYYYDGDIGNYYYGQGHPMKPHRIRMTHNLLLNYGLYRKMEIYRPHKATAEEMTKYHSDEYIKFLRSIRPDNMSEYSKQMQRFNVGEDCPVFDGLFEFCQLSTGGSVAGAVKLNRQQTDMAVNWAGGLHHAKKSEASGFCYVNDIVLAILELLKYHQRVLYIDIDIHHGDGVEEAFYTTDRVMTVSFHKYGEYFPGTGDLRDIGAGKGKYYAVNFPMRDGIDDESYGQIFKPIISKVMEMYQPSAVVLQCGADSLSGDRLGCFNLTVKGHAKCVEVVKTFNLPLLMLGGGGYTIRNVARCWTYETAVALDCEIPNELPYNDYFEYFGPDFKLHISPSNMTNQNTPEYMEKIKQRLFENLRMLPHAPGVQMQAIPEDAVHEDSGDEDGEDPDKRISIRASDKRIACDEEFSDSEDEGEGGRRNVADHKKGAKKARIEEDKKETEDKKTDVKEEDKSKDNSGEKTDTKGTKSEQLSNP

## C[C@H]1NC(=O)[C@H](CCCNC(=N)N)NC(=O)[C@@H](CC(N)=O)NC(=O)[C@@H](CC(N)=O)NC(=O)[C@H](CCC(=O)O)NC(=O)[C@@H](CC(=O)O)NC(=O)[C@@H](CC(N)=O)NC(=O)[C@H](CCCCCS)NC1=O [des1.3.0, SHA-dAsn-dAsp-Glu-dAsn-dAsn-Arg-dAla] (HELM PEPTIDE1{E.[dN].[dN].R.[dA].[O=C([C@H](CCCCCS)N[*:1])[*:2]].[dN].[dD]}$PEPTIDE1,PEPTIDE1,1:R1-8:R2$$$V2.0)
[1]
  IC50: 1000 nM

## C[C@H]1NC(=O)[C@H](CCCCCS)NC(=O)[C@H](CCN)NC(=O)[C@@H](CC(N)=O)NC(=O)[C@H](CO)NC(=O)[C@H](CC(=O)O)NC(=O)[C@@H](CC(=O)O)NC(=O)[C@@H]2CCCN2C(=O)[C@H](Cc2ccccc2)NC1=O [des3.5.1, SHA-dAla-Phe-Pro-dAsp-Asp-Ser-dAsn-Dab] (HELM PEPTIDE1{D.S.[dN].[Dab].[O=C([C@H](CCCCCS)N[*:1])[*:2]].[dA].F.P.[dD]}$PEPTIDE1,PEPTIDE1,1:R1-9:R2$$$V2.0)
[1]
  IC50: > 1000 nM

## CCCC[C@H]1NC(=O)[C@@H](CCCCN)NC(=O)[C@H](CCCCCS)NC(=O)[C@@H](C)NC(=O)[C@H](CCCNC(=N)N)NC(=O)[C@@H]([C@H](C)O)NC(=O)[C@@H](CC(N)=O)NC(=O)[C@H](CCC(=O)O)NC1=O [des1.2.0, SHA-dLys-dNle-Glu-dAsn-dThr-Arg-dAla] (HELM PEPTIDE1{E.[dN].[dT].R.[dA].[O=C([C@H](CCCCCS)N[*:1])[*:2]].[dK].[CCCC[C@@H](N[*:1])C(=O)[*:2]]}$PEPTIDE1,PEPTIDE1,1:R1-8:R2$$$V2.0)
read-out: HDAC2 activity (initial activity)
  IC50: 100000 nM
